pIC50: −log10 of the molar value.
Tests used:
[1] = molecular target: T1, N-terminal GST-tagged recombinant human Flt3, residues 564-end (Homo sapiens, UniProt P36888); assay: Flt3 kinase inhibition assay (33P-ATP filter assay); assay type: biochemical
T1 construct: recombinant human Flt3, residues 564-end; GST (N); purchased Upstate USA Inc, 706 Forest Street, Charlottesville, Va
T1 sequence (P36888 564-993 limits assumed): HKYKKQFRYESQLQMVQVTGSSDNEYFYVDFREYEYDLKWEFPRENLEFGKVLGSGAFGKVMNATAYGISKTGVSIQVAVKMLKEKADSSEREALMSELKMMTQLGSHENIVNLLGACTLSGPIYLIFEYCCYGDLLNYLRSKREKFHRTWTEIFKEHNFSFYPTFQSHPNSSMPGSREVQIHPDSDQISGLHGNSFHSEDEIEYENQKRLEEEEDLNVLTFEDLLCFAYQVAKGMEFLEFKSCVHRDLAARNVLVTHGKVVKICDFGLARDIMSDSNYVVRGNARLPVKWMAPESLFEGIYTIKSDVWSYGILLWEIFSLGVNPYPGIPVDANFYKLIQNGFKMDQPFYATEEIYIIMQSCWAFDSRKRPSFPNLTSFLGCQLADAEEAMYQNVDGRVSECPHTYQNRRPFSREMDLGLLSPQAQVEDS
Method in brief: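 Serial compound dilutions incubated 40 min at room temperature with 5-10 mU Flt3 kinase, 50 μM peptide substrate and [γ-33P]ATP/10 mM magnesium acetate, pH 7.0. Phosphoric acid stop, filter capture and scintillation counting; activity compared with uninhibited reactions.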

recombinant Aurora A = molecular target: T2, recombinant Aurora A (Homo sapiens, UniProt O14965); assay: Aurora A (Aurora 2) inhibition assay, Z'-Lyte kinase assay; assay type: biochemical; details: group with IC50 greater than 100 nM; ATP 10 μM, 1 h
T2 construct: purchased Upstate, Lake Placid, N.Y
T2 sequence (O14965 1-403): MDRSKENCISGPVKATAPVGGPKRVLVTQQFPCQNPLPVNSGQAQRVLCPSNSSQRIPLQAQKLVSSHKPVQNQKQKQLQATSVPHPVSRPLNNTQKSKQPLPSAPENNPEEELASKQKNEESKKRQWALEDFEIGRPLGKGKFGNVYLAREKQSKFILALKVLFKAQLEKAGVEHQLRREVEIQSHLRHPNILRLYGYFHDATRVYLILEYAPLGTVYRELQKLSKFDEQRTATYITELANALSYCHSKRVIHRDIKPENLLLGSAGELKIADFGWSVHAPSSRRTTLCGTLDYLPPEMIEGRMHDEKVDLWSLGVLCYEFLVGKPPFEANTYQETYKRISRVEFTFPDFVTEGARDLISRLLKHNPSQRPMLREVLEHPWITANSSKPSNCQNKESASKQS
Method in brief: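 Z'-Lyte FRET assay: Aurora A (200-500 ng/mL final), Ser/Thr 1 peptide (2 μM) and ATP (10 μM) in 50 mM HEPES pH 7.5, 10 mM MgCl2, 5 mM EGTA, 0.05% Brij-35, 2 mM DTT, 1 h at room temperature. Coumarin/fluorescein emission ratio converted to percent phosphorylation; dose-response curves plotted.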

Compound: Cc1cc(Nc2cc(N3CCN(C)CC3)nc(-c3cccc4c3OCCO4)n2)n[nH]1 [Example 136, 2-(2,3-dihydrobenzo[b][1,4]dioxin-5-yl)-N-(5-methyl-1H-pyrazol-3-yl)-6-(4-methylpiperazin-1-yl)pyrimidin-4-amine]
- pIC50 ([1]; 40 minutes at room temperature): ≥ 7.00
- pIC50 (recombinant Aurora A): ≥ 6.00

Compound: COCCN(C)c1cc(Nc2cc(C)[nH]n2)nc(-c2cccc3ccccc23)n1 [Example 148, N^4-(2-methoxyethyl)-N^4-methyl-N^6-(5-methyl-1H-pyrazol-3-yl)-2-(naphthalen-1-yl)pyrimidine-4,6-diamine]
- pIC50 ([1]; 40 minutes at room temperature): ≥ 7.00
- pIC50 (recombinant Aurora A): ≥ 6.00

Compound: Cc1cc(Nc2cc(NC3CCOCC3)nc(-c3ccccc3C(F)(F)F)n2)n[nH]1 [Compound 81, N^4-(5-methyl-1H-pyrazol-3-yl)-N^6-(tetrahydro-2H-pyran-4-yl)-2-(2-(trifluoromethyl)phenyl)pyrimidine-4,6-diamine]
- pIC50 ([1]; 40 minutes at room temperature): ≥ 7.00
- pIC50 (recombinant Aurora A): ≥ 6.00

Compound: Cc1cc(Nc2cc(N(C)CCN(C)C)nc(-c3ccc4c(c3)OCO4)n2)n[nH]1 [Example 146, 2-(benzo[d][1,3]dioxol-5-yl)-N^4-(2-(dimethylamino)ethyl)-N^4-methyl-N^6-(5-methyl-1H-pyrazol-3-yl)pyrimidine-4,6-diamine]
- pIC50 ([1]; 40 minutes at room temperature): ≥ 7.00
- pIC50 (recombinant Aurora A): ≥ 6.00

Compound: COCCN(C)c1cc(Nc2cc(C)[nH]n2)nc(-c2cccc3c2OCCO3)n1 [Example 150, 2-(2,3-dihydrobenzo[b][1,4]dioxin-5-yl)-N^4-(2-methoxyethyl)-N^4-methyl-N^6-(5-methyl-1H-pyrazol-3-yl)pyrimidine-4,6-diamine]
- pIC50 ([1]; 40 minutes at room temperature): ≥ 7.00
- pIC50 (recombinant Aurora A): ≥ 6.00

Compound: Cc1cc(Nc2cc(NC3CCOCC3)nc(-c3ccc(C(C)(C)C)cc3)n2)n[nH]1 [Compound 70, 2-(4-tert-butylphenyl)-N^4-(5-methyl-1H-pyrazol-3-yl)-N^6-(tetrahydro-2H-pyran-4-yl)pyrimidine-4,6-diamine]
- pIC50 ([1]; 40 minutes at room temperature): ≥ 7.00
- pIC50 (recombinant Aurora A): ≥ 6.00

Compound: COCCN(C)c1cc(Nc2cc(C)[nH]n2)nc(-c2ccc3ccccc3c2)n1 [Example 149, N^4-(2-methoxyethyl)-N^4-methyl-N^6-(5-methyl-1H-pyrazol-3-yl)-2-(naphthalen-2-yl)pyrimidine-4,6-diamine]
- pIC50 ([1]; 40 minutes at room temperature): ≥ 7.00
- pIC50 (recombinant Aurora A): ≥ 6.00

Compound: COCCN(C)c1cc(Nc2cc(C)[nH]n2)nc(-c2ccccc2C(F)(F)F)n1 [Example 126, N^4-(2-methoxyethyl)-N^4-methyl-N^6-(5-methyl-1H-pyrazol-3-yl)-2-(2-(trifluoromethyl)phenyl)pyrimidine-4,6-diamine]
- pIC50 ([1]; 40 minutes at room temperature): ≥ 7.00
- pIC50 (recombinant Aurora A): ≥ 6.00

Compound: Cc1cc(Nc2cc(NC3CCOCC3)nc(-c3cccc4ccccc34)n2)n[nH]1 [Example 127, N^4-(5-methyl-1H-pyrazol-3-yl)-2-(naphthalen-1-yl)-N^6-(tetrahydro-2H-pyran-4-yl)pyrimidine-4,6-diamine]
- pIC50 ([1]; 40 minutes at room temperature): ≥ 7.00
- pIC50 (recombinant Aurora A): ≥ 6.00

Compound: Cc1cc(Nc2cc(N3CCN(C)CC3)nc(-c3ccc(-c4ccccc4)cc3)n2)n[nH]1 [Example 157, 2-(biphenyl-4-yl)-N-(5-methyl-1H-pyrazol-3-yl)-6-(4-methylpiperazin-1-yl)pyrimidin-4-amine]
- pIC50 ([1]; 40 minutes at room temperature): ≥ 7.00
- pIC50 (recombinant Aurora A): ≥ 6.00

Compound: Cc1cc(Nc2cc(N3CCN(C)CC3)nc(-c3cc(F)cc(Cl)c3)n2)n[nH]1 [Compound 97]
- pIC50 ([1]; 40 minutes at room temperature): ≥ 7.00
- pIC50 (recombinant Aurora A): ≥ 6.00

Compound: Cc1cc(Nc2cc(N(C)CCN(C)C)nc(-c3cccc(C(F)(F)F)c3)n2)n[nH]1 [Compound 113, N^4-(2-(dimethylamino)ethyl)-N^4-methyl-N^6-(5-methyl-1H-pyrazol-3-yl)-2-(3-(trifluoromethyl)phenyl)pyrimidine-4,6-diamine]
- pIC50 ([1]; 40 minutes at room temperature): ≥ 7.00
- pIC50 (recombinant Aurora A): ≥ 6.00

Compound: Cc1cc(Nc2cc(NC3CCOCC3)nc(-c3ccc(C(F)(F)F)cc3)n2)n[nH]1 [Compound 79, N^4-(5-methyl-1H-pyrazol-3-yl)-N^6-(tetrahydro-2H-pyran-4-yl)-2-(4-(trifluoromethyl)phenyl)pyrimidine-4,6-diamine]
- pIC50 ([1]; 40 minutes at room temperature): ≥ 7.00
- pIC50 (recombinant Aurora A): ≥ 6.00

Compound: Cc1cc(Nc2cc(N3CCN(C)CC3)nc(-c3ccc(C(F)(F)F)cc3)n2)n[nH]1 [Compound 100]
- pIC50 ([1]; 40 minutes at room temperature): ≥ 7.00
- pIC50 (recombinant Aurora A): ≥ 6.00

Compound: COCCN(C)c1cc(Nc2cc(C)[nH]n2)nc(-c2cccc(C(F)(F)F)c2)n1 [Compound 125, N^4-(2-methoxyethyl)-N^4-methyl-N^6-(5-methyl-1H-pyrazol-3-yl)-2-(3-(trifluoromethyl)phenyl)pyrimidine-4,6-diamine]
- pIC50 ([1]; group with IC50 greater than 100 nM): ≥ 6.00
- pIC50 (recombinant Aurora A): ≥ 6.00

Compound: Cc1cc(Nc2cc(NC3CCOCC3)nc(-c3cccc(C(F)(F)F)c3)n2)n[nH]1 [Compound 80, N^4-(5-methyl-1H-pyrazol-3-yl)-N^6-(tetrahydro-2H-pyran-4-yl)-2-(3-(trifluoromethyl)phenyl)pyrimidine-4,6-diamine]
- pIC50 ([1]; 40 minutes at room temperature): ≥ 7.00
- pIC50 (recombinant Aurora A): ≥ 6.00

Compound: COCCN(C)c1cc(Nc2cc(C)[nH]n2)nc(-c2cccc(C)c2)n1 [Compound 65, N^4-(2-methoxyethyl)-N^4-methyl-N^6-(5-methyl-1H-pyrazol-3-yl)-2-m-tolylpyrimidine-4,6-diamine]
- pIC50 ([1]; 40 minutes at room temperature): ≥ 7.00
- pIC50 (recombinant Aurora A): ≥ 6.00

Compound: COCCN(C)c1cc(Nc2cc(C)[nH]n2)nc(-c2ccccc2Cl)n1 [Compound 63]
- pIC50 ([1]; 40 minutes at room temperature): ≥ 7.00
- pIC50 (recombinant Aurora A): ≥ 6.00

Compound: Cc1cc(Nc2cc(N(C)CCN(C)C)nc(-c3ccc(C(C)(C)C)cc3)n2)n[nH]1 [Compound 103, 2-(4-tert-butylphenyl)-N^4-(2-(dimethylamino)ethyl)-N^4-methyl-N^6-(5-methyl-1H-pyrazol-3-yl)pyrimidine-4,6-diamine]
- pIC50 ([1]; 40 minutes at room temperature): ≥ 7.00
- pIC50 (recombinant Aurora A): ≥ 6.00

Compound: COCCN(C)c1cc(Nc2cc(C)[nH]n2)nc(-c2ccc(OC)cc2)n1 [Compound 67, N^4-(2-methoxyethyl)-2-(4-methoxyphenyl)-N^4-methyl-N^6-(5-methyl-1H-pyrazol-3-yl)pyrimidine-4,6-diamine]
- pIC50 ([1]; 40 minutes at room temperature): ≥ 7.00
- pIC50 (recombinant Aurora A): ≥ 6.00

Compound: Cc1cc(Nc2cc(N(C)CCN(C)C)nc(-c3cccc(N(C)C)c3)n2)n[nH]1 [Compound 107]
- pIC50 ([1]; 40 minutes at room temperature): ≥ 7.00
- pIC50 (recombinant Aurora A): ≥ 6.00

Compound: COCCN(C)c1cc(Nc2cc(C)[nH]n2)nc(-c2cccc(OC)c2)n1 [Compound 68, N^4-(2-methoxyethyl)-2-(3-methoxyphenyl)-N^4-methyl-N^6-(5-methyl-1H-pyrazol-3-yl)pyrimidine-4,6-diamine]
- pIC50 ([1]; 40 minutes at room temperature): ≥ 7.00
- pIC50 (recombinant Aurora A): ≥ 6.00

Compound: Cc1cc(Nc2cc(N3CCN(C)CC3)nc(-c3ccccc3C(F)(F)F)n2)n[nH]1 [Compound 102, N-(5-methyl-1H-pyrazol-3-yl)-6-(4-methylpiperazin-1-yl)-2-(2-(trifluoromethyl)phenyl)pyrimidin-4-amine]
- pIC50 ([1]; 40 minutes at room temperature): ≥ 7.00
- pIC50 (recombinant Aurora A): ≥ 6.00

Compound: COCCN(C)c1cc(Nc2cc(C)[nH]n2)nc(-c2ccc(N(C)C)cc2)n1 [Compound 118, 2-(4-(dimethylamino)phenyl)-N^4-(2-methoxyethyl)-N^4-methyl-N^6-(5-methyl-1H-pyrazol-3-yl)pyrimidine-4,6-diamine]
- pIC50 ([1]; 40 minutes at room temperature): ≥ 7.00
- pIC50 (recombinant Aurora A): ≥ 6.00

Compound: Cc1cc(Nc2cc(N(C)CCN(C)C)nc(-c3ccc4ccccc4c3)n2)n[nH]1 [Example 142, N^4-(2-(dimethylamino)ethyl)-N^4-methyl-N^6-(5-methyl-1H-pyrazol-3-yl)-2-(naphthalen-2-yl)pyrimidine-4,6-diamine]
- pIC50 ([1]; 40 minutes at room temperature): ≥ 7.00
- pIC50 (recombinant Aurora A): ≥ 6.00
